The test concerns HSV-1. The experiment in a line: skin infection of BALB/c mice with HSV-1, scoring of affected parts and survival. It counts as in vivo. The source says: In order to illustratively confirm the effect of 3-oxo-olean-18-en-28-oic acid (moronic acid) to inhibit growth of viruses after viral infection, skin cell tissues of BALB/c mice were infected with the strain HSV-1 and then the parts affected thereafter were observed and scored. The scores were made based on the average time (days ± standard deviation) until the affected parts reached score 2 (local efflorescence, bulla, erosion) or score 6 (slight shingles) and based on the survival days.

Setting [1] is: Exp. 3, 1 mg/kg oral three times a day.
Setting [2] is: Exp. 3, 10 mg/kg oral three times a day.
Setting [3] is: Exp.1, 1 mg/kg oral three times a day.
Where [4] appears, read: Exp.2, 0.2 mg/kg oral three times a day.
[5] abbreviates: Exp.2, 1 mg/kg oral three times a day.
Where [6] appears, read: Exp.2, 5 mg/kg oral three times a day.

Molecules are shown by their SMILES.

These results are taken from EP0878193A1, “REMEDIES FOR HERPESVIRUS INFECTION CAUSED BY HERPESVIRUS AND PREVENTIVES FOR RECURRENCE OF THE INFECTION BOTH CONTAINING TRITERPENE DERIVATIVES AS THE ACTIVE INGREDIENT” (Showa Shell Sekiyu K.K., priority 1996, dated 1997).

Take `CC1(C)C=C2[C@H]3CC[C@@H]4[C@@]5(C)CCC(=O)C(C)(C)[C@@H]5CC[C@@]4(C)[C@]3(C)CC[C@@]2(C(=O)O)CC1` [Moronic acid, 3-oxo-olean-18-en-28-oic acid]: the “Average time (days ± standard deviation) Score-2 (local efflorescence, bulla, erosion)” value is on record as 3.80 ± 0.63 b days under setting [1]; 3.70 ± 0.48 b days under setting [2]; 3.90 ± 0.70 b days under setting [3]; 4.00 ± 0.47 d days under setting [4]; 3.60 ± 0.70 days under setting [5]; 3.90 ± 0.74 b days under setting [6]. The “Average time (days ± standard deviation) Score-6 (slight shingles)” value by setting is: under setting [1], 5.60 ± 0.71 days; under setting [2], 5.30 ± 0.48 days; under setting [3], 5.70 ± 0.68 b days; under setting [4], 5.78 ± 0.97 days; under setting [5], 5.40 ± 0.52 days; under setting [6], 5.40 ± 0.53 days. Further, the “Average time (days ± standard deviation) Survival” value is 7.70 ± 2.16 days under setting [1]; 6.80 ± 0.42 days under setting [2]; 7.30 ± 1.16 b days under setting [3]; 6.89 ± 0.33 days under setting [4]; 7.00 ± 1.49 days under setting [5]; 7.10 ± 1.52 days under setting [6].
